This note sets out measurements from paper PMC7855930, “Nontoxic Cobalt(III) Schiff Base Complexes with Broad‐Spectrum Antifungal Activity” (Chemistry (Weinheim an Der Bergstrasse, Germany), 2020).

Data set [1] relates to panel of eight Candida and Cryptococcus strains. In words: Antifungal MIC, summary over the extended panel. Type of data set: cell-based. The following applies: whole yeast panel, tested alone. The text has this:
Yeast strains: Candida albicans (ATCC 90028, NCCLS 11), Cryptococcus neoformans (ATCC 208821, H99 type strain), Candida tropicalis (ATCC 750, type strain), Candida glabrata (ATCC 90030, NCCLS 84) and Cryptococcus deuterogattii (ATCC 32609, type strain) were obtained from the American Type Culture Collection (ATCC). Cryptococcus deuterogattii (CBS 7750), Candida auris (CBS 10913) and Candida auris (CBS 12373) were obtained from the CBS‐KNAW culture collection. The strains were maintained on glycerol/YPD (yeast extract‐peptone dextrose) broth (20:80 v/v) at −80 °C.
Antifungal minimum inhibitory concentration (MIC) assay: The cobalt complexes and antifungal control compounds were serially diluted in 50 μL of Yeast Nitrogen Broth (YNB; BD, Cat No. 233520 supplemented with 2 % glucose and 10 mM ammonium sulfate) two‐fold across the wells of non‐binding surface (NBS) 96‐well plates (Corning; Cat. No. 3641). […]
Yeast strains were cultured from glycerol onto YPD (Becton Dickinson 242720) agar at 30 °C for 72 h. For each strain, a minimum of five single colonies were taken from the agar plate and dissolved in sterile water and adjusted to form a yeast suspension of 1×10^6 to 5×10^6 CFU mL^−1 (as determined by OD530). […]
Growth inhibition of all strains was determined visually where the MIC was recorded as the lowest compound concentration with no visible growth. […]

A short description of data set [2]: Stability in water by 1H NMR (axial ligand exchange). It counts as physicochemical. Conditions: room temperature. The text has this: Because our previous results had shown that complexes bearing weak axial donors are more biologically active, we sought to synthesise a very labile Co^III‐bis(thiosemicarbazone) complex by using a weakly donating pyridine axial monodentate ligand. We were unable to synthesise a complex using unsubstituted pyridine, probably because it is a such a weak donor ligand that it will not remain bound to the Co^III center even briefly, preventing isolation of the complex. However, we were able to isolate a complex (3) bearing the more electron‐donating 4‐(dimethylamino)pyridine (DMAP) ligand in the axial positions. As expected, this complex is extremely labile. […] In our hands, the bis‐aqua complex could not be isolated.

The test system of a further data set is C. albicans. In words: CO-ADD screening, broth microdilution MIC, yeast reference strain. It counts as cell-based. The text has this:
(§1) As previously mentioned, complexes 1, 2 and 4 were studied in earlier biological assays. […] In our CO‐ADD screening, using broth microdilution (BMD) MIC assays (Table S2), complexes 1–3 were effective at killing drug‐susceptible yeast reference strains of C. albicans and C. neoformans while displaying no antibacterial activity.

In another data set the test system is C. neoformans. Described as above. It counts as cell-based.
Excerpt: as §1

Consider `O=[N+]([O-])[O-].O=[N+]([O-])[O-].[Co+2]` [Co, Co(NO3)2, reference compound], for which the “MIC, no detectable antifungal effect up to” value in data set [1] was over 100 µM.

In the case of `CC1=[N+]2N=C(N)[S][Co-3]23([n+]2ccc(N(C)C)cc2)([n+]2ccc(N(C)C)cc2)[S]C(N)=N[N+]3=C1C.O=[N+]([O-])[O-]` [Compound 3, [Co(ATS)(DMAP)2]NO3], the “Stability on dissolution in water” value in data set [2] (1H NMR, on dissolution) was “immediately yields a mixture of species”. Besides, in data set [2] (incubation overnight), the “Stability in water overnight” value is on record as “totally converted into the bis‐aqua complex”.

As to `O=[N+]([O-])[O-].[NH3+][Co-3]123([NH3+])[O]c4c(F)cccc4C=[N+]1c1ccccc1[N+]2=Cc1cccc(F)c1[O]3` [Compound 7, [Co(3F‐salophen)(NH3)2]NO3], the “Antifungal activity, C. albicans reference strain” value with C. albicans is “neither antibacterial nor antifungal activity”. In addition, the “Antifungal activity, C. neoformans reference strain” value in the data set with C. neoformans is “neither antibacterial nor antifungal activity”.
